Where a SMILES comes first, the peptide text is derived from it.
Key:
[1] = Bead halo assay, bare neutravidin beads (non-specific control); settings: AF488-labeled, 200 nM, binding buffer
Method: The bead halo assay was carried out as described with minor modifications ([Patel and Rexach, 2008]), using […] polystyrene beads coated with neutravidin (for biotinylated proteins) or glutathione (for GST-fusion proteins) (Spherotech, Lake Forest, IL). Beads were coated overnight at 4°C at saturating concentrations per manufacturers’ instructions and rinsed 2x in binding buffer (20 mM HEPES [pH 7.4], 150 mM KOAc, 2 mM Mg(OAc)2, 1 mM DTT, 0.1% Tween-20). Immediately prior to the assay, fluorescent bait proteins and beads were combined with 4x assay buffer (40 mM EDTA, 40 mg/ml BSA, 500 mM NaCl, and 0.2% Tween) to a total of 40 µL per well, in optical glass-bottom 96-well plates (Cellvis, Mountain View, CA). Reactions were allowed to equilibrate at room temperature for a minimum of 30 min prior to imaging at 100x on an LSM800 confocal microscope (Zeiss, Oberkochen, Germany). Intensity profiles comparing the maximum rim intensity to the background were plotted in ImageJ (NIH) by an investigator blinded to experimental conditions.

[2] = target: importin β-mediated nuclear import of Rango (Homo sapiens, UniProt Q14974); assay: Fractionated Rango transport assay (aggregates present or supernatant only), HeLa; type: cell-based
Method: A single cell-derived clone of HeLa cells (ATCC, Manassas, VA; mycoplasma negative and validated by STR profiling) were maintained in OptiMEM (Gibco/ThermoFisher) with 4% FBS and plated on uncoated optical glass-bottom 96 well plates, at appropriate densities to reach 70–90% confluence on the day of the transport assay. To permeabilize, cells were rinsed for 2 min in ice-cold PBS, and permeabilized on ice for 10 min in 15–30 µg/mL digitonin (Calbiochem, San Diego, CA) in permeabilization buffer (PRB, 20 mM HEPES, 110 mM KOAc, 5 mM Mg(OAc)2, 0.5 mM EGTA, 250 mM sucrose, pH 7.5, with protease inhibitor cocktail). Following permeabilization, cells were placed on ice and rinsed 3 × 5 min in transport buffer (TRB, 20 mM HEPES, 110 mM KOAc, 2 mM Mg(OAc)2, 5 mM NaOAc, 0.5 mM EGTA, 250 mM sucrose, pH 7.3, with protease inhibitor cocktail). The optimal digitonin concentration varied by cell density and passage number, and was optimized prior to each set of assays for the ability to permeabilize the majority of plasma membranes while maintaining nuclear exclusion of a 70 kD fluorescent dextran (ThermoFisher).
Reaction mixes consisting of 2.5 mg/ml lysate, ER, fluorescent cargo (200 nM Rango and YFP-M9-CFP, 500 nM GST-GFP-NLS), Hoechst, DPRs, RNA, or inhibitors (100 µM importazole (IPZ, Millipore Sigma); 0.8 mg/mL wheat germ agglutinin (WGA, Millipore Sigma) were assembled on ice during cell permeabilization. DPRs or inhibitors were allowed to equilibrate in cell lysate for at least 30 min prior to initiation of transport. Every plate included: (1) Cargo alone: fluorescent cargo, but no ER or lysate, (2) Untreated controls: fluorescent cargo, ER, and lysate, and (3) Inhibitor: fluorescent cargo, ER, lysate, and IPZ (Rango and GST-GFP-NLS reactions) or WGA (YFP-M9-CFP). Preassembled transport reactions were then transferred onto permeabilized cells via multichannel pipette, and allowed to proceed at room temperature for 2 hr (Rango, YFP-M9-CFP) or 4 hr (GST-GFP-NLS). Cells were fixed in 4% paraformaldehyde/PBS, rinsed 2x with PBS, and transferred to 50% glycerol/PBS for immediate imaging.
For a subset of neuron transport assays, transport was monitored live via time lapse imaging every 5 min for 30 min. […]
Multiple non-overlapping fields per well (4 for time-lapse imaging, 9-16 for fixed imaging), were captured at 40x on an ImageXpress Micro XLS high-content microscope (Molecular Devices, San Jose, CA), and the ratio of nuclear to cytoplasmic fluorescence intensity was calculated using the MetaXpress automated translocation-enhanced module. […] Resulting N/C ratios were expressed as % untreated, to permit comparisons across biological replicates.

RCC1 = assay: DPR aggregation assay and western blot, RCC1 (negative control); type: biochemical, human; settings: 100 µM 10mer in 2.5 mg/ml HEK lysate, normalized to untreated HEK
Method: (§1) Supernatant and pellet fractions (for all 5 DPRs, and control/buffer only) were prepared as in the nuclear transport assays, by adding 100 µM 10mers to 2.5 mg/ml HEK lysate in 100 µL TRB. Supernatants were boiled in Laemmli (BioRad) for 5 min. Pellets were boiled for 15 min followed by sonication in order to fully disperse aggregates for SDS-PAGE. Equal volumes of supernatant and pellet fractions were run on 4–12% Bolt Bis-Tris Plus gels (ThermoFisher), transferred to nitrocellulose membrane using an iBlot2 dry blotting system (ThermoFisher). Protein loading was analyzed by BLOT-Faststain (G-biosciences, St. Louis, MO), according to the manufacterers’ instructions. For immunodetection, membranes were blocked with 5% non-fat milk in TBST and probed by sequential incubation with the primary antibodies as detailed in the table below. Detection was by HRP-conjugated secondary antibodies/chemiluminescence using an ImageQuant LAS 4000 system (GE, Chicago, IL). To permit sequential probing of membranes without stripping, signals were quenched by incubation with prewarmed 30% H20_2 for 20 min ([Sennepin et al., 2009]). Band intensities were measured by ImageQuant software. For pellet vs. supernatant fractions, all were expressed as percent untreated control. For blots in Figure 1E, samples were run on 4–20% SDS PAGE minigels (ThermoFisher) and blotted to PVDF membranes (Immun-Blot PVDF, Bio-Rad) using the Bio-Rad TransBlot Turbo apparatus, and probed as above. The chemiluminescence signal was captured with a Bio-Rad ChemiDoc XRS+ digital imaging system.

DDX3X = assay: DPR aggregation assay and western blot, DDX3X; type: biochemical, human; settings: normalized to untreated HEK cells on the same membrane
Method: as §1

Sequence of importin β-mediated nuclear import of Rango (Q14974 whole entry): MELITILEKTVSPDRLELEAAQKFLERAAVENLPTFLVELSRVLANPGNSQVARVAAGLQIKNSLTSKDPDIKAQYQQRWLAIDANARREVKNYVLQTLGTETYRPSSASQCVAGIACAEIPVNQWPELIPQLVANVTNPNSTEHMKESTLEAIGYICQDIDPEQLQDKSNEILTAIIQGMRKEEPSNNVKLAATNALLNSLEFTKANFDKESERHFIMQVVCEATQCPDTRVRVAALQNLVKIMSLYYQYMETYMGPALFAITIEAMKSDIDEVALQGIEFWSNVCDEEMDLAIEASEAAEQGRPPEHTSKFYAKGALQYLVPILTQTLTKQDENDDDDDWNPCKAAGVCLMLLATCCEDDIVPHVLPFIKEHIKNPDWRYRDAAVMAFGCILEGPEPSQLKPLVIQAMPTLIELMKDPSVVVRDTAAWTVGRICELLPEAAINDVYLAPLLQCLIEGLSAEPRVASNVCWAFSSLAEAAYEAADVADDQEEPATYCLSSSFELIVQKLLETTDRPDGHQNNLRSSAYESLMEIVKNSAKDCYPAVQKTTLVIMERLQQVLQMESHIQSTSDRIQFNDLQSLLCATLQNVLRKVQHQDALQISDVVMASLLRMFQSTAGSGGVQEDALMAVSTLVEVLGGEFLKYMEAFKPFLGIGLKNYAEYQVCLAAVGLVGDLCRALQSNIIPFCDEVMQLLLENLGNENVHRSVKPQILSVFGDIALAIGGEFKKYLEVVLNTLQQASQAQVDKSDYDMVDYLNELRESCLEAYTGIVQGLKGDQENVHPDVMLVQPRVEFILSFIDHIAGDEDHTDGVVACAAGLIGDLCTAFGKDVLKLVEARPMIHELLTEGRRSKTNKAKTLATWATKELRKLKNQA

With `N=C(N)NCCC[C@H](NC(=O)[C@@H]1CCCN1C(=O)[C@H](CCCNC(=N)N)NC(=O)[C@@H]1CCCN1C(=O)[C@H](CCCNC(=N)N)NC(=O)[C@@H]1CCCN1C(=O)[C@H](CCCNC(=N)N)NC(=O)[C@@H]1CCCN1C(=O)[C@H](CCCNC(=N)N)NC(=O)[C@@H]1CCCN1C(=O)[C@H](CCCNC(=N)N)NC(=O)[C@@H]1CCCN1C(=O)[C@H](CCCNC(=N)N)NC(=O)[C@@H]1CCCN1C(=O)[C@H](CCCNC(=N)N)NC(=O)[C@@H]1CCCN1C(=O)[C@H](CCCNC(=N)N)NC(=O)[C@@H]1CCCN1C(=O)[C@H](CCCNC(=N)N)NC(=O)[C@@H]1CCCN1)C(=O)O` [PR10] (H-PRPRPRPRPRPRPRPRPRPR-OH; N-terminus and C-terminus assumed) the “Binding to bare beads” value [1] was “modest non-specific binding”, the “Rango import with supernatant only (aggregates removed by centrifugation)” value [2] was “nuclear import remained perturbed” and the “Rango import with supernatant only plus RNA” value ([2]; RNA added) was “restored by the addition of RNA”. For the same compound, the “RCC1 band density, Pellet” value (RCC1; Blot 1) was 27.7 % control, the “RCC1 band density, Supernatant” value (RCC1; Blot 1) was 103.7 % control and the “RCC1 band density, Pellet” value (RCC1; Blot 2) was 109.0 % control. The “RCC1 band density, Supernatant” value (RCC1; Blot 2) was 124.4 % control, the “DDX3X band density, % control” value (DDX3X; Pellet, Blot 1) was 156.6 % control and the “DDX3X band density, % control” value (DDX3X; Pellet, Blot 2) was 221.4 % control. The “DDX3X band density, % control” value (DDX3X; Supernatant, Blot 1) was 10.9 % control and the “DDX3X band density, % control” value (DDX3X; Supernatant, Blot 2) was 1.8 % control.
